Paper PMC5739345, “Identification of iridoid synthases from Nepeta species: Iridoid cyclization does not determine nepetalactone stereochemistry” (Phytochemistry, 2018)

Tests used:
[1] = target: T1, NcISY2 (Nepeta cataria, UniProt A0A221J5X1); assay: end point assay, GC-MS of products; format: biochemical; conditions: 500 μM 8-oxogeranial, 1 mM NADPH, 200 mM MOPS pH 7.0, 100 mM NaCl, 0.5% THF, 0.5 μM enzyme, 30 °C, 3 h
T1 construct: gene ISY2; N-terminal His-tag (pOPINF), E. coli soluBL21 (DE3), Ni-NTA and gel filtration; not fully homogeneous; dimer fraction

[2] = target: T2, ISY (C. roseus) (Catharanthus roseus, UniProt K7WDL7); assay: end point assay, GC-MS of products; format: biochemical; conditions: 500 μM 8-oxogeranial, 1 mM NADPH, 200 mM MOPS pH 7.0, 100 mM NaCl, 0.5% THF, 30 °C, 3 h; positive control
T2 construct: positive control; construct not described here; dimer 83 kDa
T2 sequence (K7WDL7 whole entry): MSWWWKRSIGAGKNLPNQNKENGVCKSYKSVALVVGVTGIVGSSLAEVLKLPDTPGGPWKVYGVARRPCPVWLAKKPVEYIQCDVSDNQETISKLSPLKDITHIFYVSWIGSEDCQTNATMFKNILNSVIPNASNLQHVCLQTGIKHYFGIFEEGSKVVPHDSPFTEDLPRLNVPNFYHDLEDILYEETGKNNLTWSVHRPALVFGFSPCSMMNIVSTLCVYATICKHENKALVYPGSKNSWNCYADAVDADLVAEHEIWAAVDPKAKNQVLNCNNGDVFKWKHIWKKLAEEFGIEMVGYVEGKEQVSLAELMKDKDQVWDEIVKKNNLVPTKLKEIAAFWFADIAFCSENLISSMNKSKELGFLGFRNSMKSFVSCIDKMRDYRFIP

T1 sequence (A0A221J5X1 2-397): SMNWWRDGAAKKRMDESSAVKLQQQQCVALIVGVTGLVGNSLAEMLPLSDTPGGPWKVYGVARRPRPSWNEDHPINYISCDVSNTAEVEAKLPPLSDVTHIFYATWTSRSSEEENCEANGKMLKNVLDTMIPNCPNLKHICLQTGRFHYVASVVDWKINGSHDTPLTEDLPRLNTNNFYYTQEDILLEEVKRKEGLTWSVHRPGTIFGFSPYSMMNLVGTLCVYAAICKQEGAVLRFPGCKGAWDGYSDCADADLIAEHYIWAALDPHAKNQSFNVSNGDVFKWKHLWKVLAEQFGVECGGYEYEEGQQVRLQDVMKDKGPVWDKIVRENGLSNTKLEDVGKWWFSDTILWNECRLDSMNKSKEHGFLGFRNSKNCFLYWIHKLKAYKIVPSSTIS

`C/C(C=O)=C\CC/C(C)=C/C=O` [8-oxogeranial] was tested, and the “end point assay, GC-MS of products” value [1] was “the other (NcISY2 and NmISY2) has robust catalytic activity toward the 8-oxogeranial substrate” and the “end point assay, GC-MS of products” value [2] was “a positive control was conducted with ISY (C. roseus)”.
